# According to PMC3481155, “AhR activation underlies the CYP1A autoinduction by A-998679 in rats” (Frontiers in Genetics, 2012):
# How the values were obtained:
# [1] = 5-day oral rat study, pharmacokinetic analysis of plasma exposure; format: in vivo
# Description: All animal experiments were conducted in accordance with the Guiding Principles in the Use of Animals in Toxicology (http://www.toxicology.org/ai/air/air6.asp) and were approved by Abbott's Institutional Animal Care and Use Committee (IACUC). Male Sprague-Dawley rats [Crl:CD®(SD)IGS BR], weighing ~250 g at study initiation were obtained from Charles River Laboratories, Inc. (Wilmington, MA). Rats were housed singly in ventilated, stainless steel, wire-bottom hanging cages and fed non-certified Rodent Chow (Harlan Labs, Madison, WI), and water ad libitum and acclimated for at least 5 days after arrival. Rats were randomly assigned to various treatment groups (3 rats/group) and were dosed once daily by oral gavage with vehicle (0.2% hydroxypropylmethylcellulose at a dose volume of 10 ml/kg) or with 30, 100, or 200 mg/kg of A-998679. All rats were fasted overnight after their last dose, weighed and sacrificed under isoflurane anesthesia. For histopathological evaluation, liver, heart, kidney, spleen, bone (sternum) with marrow, gastrointestinal tract (duodenum with pancreas, jejunum, ileum, cecum, and colon), thymus, and lung were fixed in formalin, routinely processed, and embedded in paraffin. Paraffin sections (4 μm) were stained with hematoxylin and eosin. Liver and small intestine (jejunum) were also flash frozen in liquid nitrogen and stored at −80°C until processing for gene expression profiling. Serum clinical chemistry parameters were quantified using an Aeroset Clinical Chemistry Analyzer (Abbott Laboratories, Abbott Park, IL) and included alanine amino transferase (ALT), aspartate amino transferase (AST), gamma glutamyltransferase (GGT), and alkaline phosphatase (ALP) activities.
# Serial blood samples were obtained from a tail vein of each rat 0.5, 1.5, 3, 6, 9, 12, and 24 h after drug administration on the first and last day of dosing. Plasma was separated by centrifugation and stored frozen prior to analysis. A-998679 was separated from the plasma using protein precipitation with acetonitrile. A-998679 and the internal standard were separated from co-extracted contaminants on a 50 × 3 mm Betasil CN column (Thermosystem) with an acetonitrile: 10 mM ammonium acetate mobile phase (35:65, by volume) at a flow rate of 0.4 ml/min at ambient temperature. Concentrations of A-998679 in the plasma extracts were determined by HPLC-MS/MS (API2000; Applied Biosystems). Peak plasma concentrations (Cmax) and the time to peak plasma concentration (Tmax) were read directly from the plasma concentration data for each rat. A-998679 plasma concentration data were submitted to multi-exponential curve fitting using WinNonlin. The area under the plasma concentration-time curve from 0 to t hours (time of the last measurable plasma concentration) after dosing (AUC0-t) was calculated using the linear trapezoidal rule for the plasma concentration-time profiles. The residual area extrapolated to infinity, determined as the final measured plasma concentration (Ct) divided by the terminal elimination rate constant (β), was added to AUC0-t to produce the total area under the curve (AUC0-∞).
# rat Cyp1a1 = target: T1, rat Cyp1a1 (Rattus norvegicus, UniProt P00185); test: Recombinant rat Cyp phenotype profiling, 1A1; format: in vitro ADME; details: recombinant rat Cyp 1A1 (200 pmol/ml), 60 min
# T1 construct: purchased BD Gentest; host or cells: baculovirus infected insect cells
# T1 sequence (P00185 whole entry): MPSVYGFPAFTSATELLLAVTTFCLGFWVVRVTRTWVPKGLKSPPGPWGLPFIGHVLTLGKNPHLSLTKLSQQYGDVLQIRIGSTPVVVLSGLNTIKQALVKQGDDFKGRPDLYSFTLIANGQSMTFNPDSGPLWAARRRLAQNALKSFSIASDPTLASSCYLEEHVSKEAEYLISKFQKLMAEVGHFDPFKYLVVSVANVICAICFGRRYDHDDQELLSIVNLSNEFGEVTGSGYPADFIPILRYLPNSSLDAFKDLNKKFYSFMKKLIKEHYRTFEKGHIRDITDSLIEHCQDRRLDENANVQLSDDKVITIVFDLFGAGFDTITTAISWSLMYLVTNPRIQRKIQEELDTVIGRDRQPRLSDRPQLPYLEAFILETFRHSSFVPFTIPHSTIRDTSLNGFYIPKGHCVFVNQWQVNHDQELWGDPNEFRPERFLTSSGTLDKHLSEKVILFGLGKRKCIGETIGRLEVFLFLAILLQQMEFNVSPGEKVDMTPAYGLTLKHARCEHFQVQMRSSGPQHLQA
# Description: (§1) Identification of the drug metabolizing enzymes (DMEs) of A-998679 was studied in cDNA expressed recombinant enzymes prepared from baculovirus infected insect cells over-expressing rat Cyp isoforms (BD Gentest, Woburn, MA) as listed in Table 2. Incubations were conducted in duplicate using Supersomes. The incubation mixture contained 100 pmol/ml of enzymes, except for Cyp1a1 (200 pmol/ml), 0.1 or 0.21 μM of [^3H]A-998679 in 100 mM phosphate buffer (pH 7.4). Reactions were initiated with the addition of NADPH at a final concentration of 1 mM and incubated at 37°C for 60 min. At the end of the incubation period, the incubations were terminated by the addition of acetonitrile/ethanol (50/50, v/v) solution. Insect control samples lacking expressed enzyme were used as negative control. The degree of metabolism of A-998679 was assessed by percent of parent remaining using the radio-HPLC method described below.
# (§2) Radiolabeled components from the above assays were profiled following separation by HPLC with on line radioflow detector. The system consisted of an Agilent 1100 Series quaternary pump and autosampler connected to a Packard 500TR flow scintillation detector. The data were processed using the Radiomatic™ Flo-one® software v3.65. The scintillant (Perkin Elmer FLO-SCINT™ III) flow was maintained at 3 ml/min. […]
# rat Cyp2c11 = target: T2, rat Cyp2c11 (Rattus norvegicus, UniProt P08683); test: Recombinant rat Cyp phenotype profiling, 2C11; format: in vitro ADME; details: 60 min
# T2 construct: purchased BD Gentest; host or cells: baculovirus infected insect cells
# T2 sequence (P08683 whole entry): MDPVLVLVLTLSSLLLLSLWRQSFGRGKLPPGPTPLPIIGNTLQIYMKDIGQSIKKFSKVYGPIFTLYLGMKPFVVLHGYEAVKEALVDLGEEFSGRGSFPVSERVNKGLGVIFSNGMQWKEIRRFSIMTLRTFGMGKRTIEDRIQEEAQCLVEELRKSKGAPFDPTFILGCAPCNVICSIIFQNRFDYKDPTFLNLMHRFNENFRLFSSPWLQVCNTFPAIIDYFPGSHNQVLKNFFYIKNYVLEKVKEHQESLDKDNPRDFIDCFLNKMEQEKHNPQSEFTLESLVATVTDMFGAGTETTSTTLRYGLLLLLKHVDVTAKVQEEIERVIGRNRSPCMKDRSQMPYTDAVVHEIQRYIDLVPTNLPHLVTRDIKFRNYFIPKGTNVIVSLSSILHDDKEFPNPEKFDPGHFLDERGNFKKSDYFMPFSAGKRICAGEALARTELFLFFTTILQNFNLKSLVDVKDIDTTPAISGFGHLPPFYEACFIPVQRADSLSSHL
# Description: as §1, §2
# rat Cyp 2C13 = target: T3, rat Cyp 2C13 (Rattus norvegicus, UniProt P20814); test: Recombinant rat Cyp phenotype profiling, 2C13; format: in vitro ADME; details: 60 min
# T3 construct: purchased BD Gentest; host or cells: baculovirus infected insect cells
# T3 sequence (P20814 whole entry): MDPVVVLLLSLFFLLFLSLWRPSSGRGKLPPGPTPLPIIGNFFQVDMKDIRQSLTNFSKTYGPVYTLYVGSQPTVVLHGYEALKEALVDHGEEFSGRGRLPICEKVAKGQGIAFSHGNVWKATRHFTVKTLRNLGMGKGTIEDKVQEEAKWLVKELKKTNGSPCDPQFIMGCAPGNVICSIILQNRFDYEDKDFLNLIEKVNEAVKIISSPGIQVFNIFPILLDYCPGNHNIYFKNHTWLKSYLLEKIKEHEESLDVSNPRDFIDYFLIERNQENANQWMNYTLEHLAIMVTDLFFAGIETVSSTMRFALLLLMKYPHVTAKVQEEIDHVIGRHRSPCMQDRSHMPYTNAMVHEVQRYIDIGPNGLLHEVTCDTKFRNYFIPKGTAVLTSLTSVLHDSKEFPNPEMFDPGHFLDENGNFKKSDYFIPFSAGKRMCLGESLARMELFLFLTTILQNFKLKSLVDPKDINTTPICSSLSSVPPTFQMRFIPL
# Description: as §1, §2
# rat Cyp 2C6 = target: T4, rat Cyp 2C6 (Rattus norvegicus, UniProt P05178); test: Recombinant rat Cyp phenotype profiling, 2C6; format: in vitro ADME; details: 60 min
# T4 construct: purchased BD Gentest; host or cells: baculovirus infected insect cells
# T4 sequence (P05178 whole entry): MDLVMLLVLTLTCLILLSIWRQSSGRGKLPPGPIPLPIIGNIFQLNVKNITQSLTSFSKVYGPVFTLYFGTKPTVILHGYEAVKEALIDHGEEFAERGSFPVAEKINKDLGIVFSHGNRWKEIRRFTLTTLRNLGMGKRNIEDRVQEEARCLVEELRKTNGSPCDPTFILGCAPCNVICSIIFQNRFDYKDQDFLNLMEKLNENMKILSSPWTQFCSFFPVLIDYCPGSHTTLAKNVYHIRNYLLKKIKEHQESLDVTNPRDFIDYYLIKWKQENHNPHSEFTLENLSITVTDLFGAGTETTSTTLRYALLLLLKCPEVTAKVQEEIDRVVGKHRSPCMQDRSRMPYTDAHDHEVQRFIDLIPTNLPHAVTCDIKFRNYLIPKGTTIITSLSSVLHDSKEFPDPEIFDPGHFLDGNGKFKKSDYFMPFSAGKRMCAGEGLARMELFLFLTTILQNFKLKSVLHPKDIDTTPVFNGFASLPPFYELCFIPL
# Description: as §1, §2
# [2] = 30 and 100 mg/kg/day, data not shown
smiles,measurement,setting,value
"N#Cc1cccc(-c2noc(-c3cccnc3)n2)c1 [A-998679, 3-(5-pyridin-3-yl-1,2,4-oxadiazol-3-yl) benzonitrile]",decline in Cmax after 5 days of dosing compared to the first day,"[1]; 30 mg/kg/day, day 5 vs day 1",88%
same,decrease in plasma AUC after 5 days of dosing,"[1]; 30 mg/kg/day, day 5 vs day 1",95%
same,decline in Cmax after 5 days of dosing compared to the first day,"[1]; 100 mg/kg/day, day 5 vs day 1",53%
same,decrease in plasma AUC after 5 days of dosing,"[1]; 100 mg/kg/day, day 5 vs day 1",80%
same,change in AUC after 5 days of dosing,"[1]; 200 mg/kg/day, day 5 vs day 1",no change
same,change in Cmax after 5 days of dosing,"[1]; 200 mg/kg/day, day 5 vs day 1",no change
same,change in Tmax after 5 days of dosing,[1]; [2],decrease
same,change in t1/2 after 5 days of dosing,[1]; [2],decrease
same,Cmax,"[1]; male, Sprague-Dawley, plasma, 30 mg/kg",~5 µM
same,% parent remaining,rat Cyp1a1; 0.10 μM,0%
same,% parent remaining,rat Cyp1a1; 0.21 μM,0%
same,% parent remaining,"rat Cyp2c11; recombinant rat Cyp 2C11, 0.10 μM",78.1%
same,% parent remaining,"rat Cyp2c11; recombinant rat Cyp 2C11, 0.21 μM",28.8%
same,% parent remaining,"rat Cyp 2C13; recombinant rat Cyp 2C13, 0.10 μM",100%
same,% parent remaining,"rat Cyp 2C13; recombinant rat Cyp 2C13, 0.21 μM",100%
same,% parent remaining,"rat Cyp 2C6; recombinant rat Cyp 2C6, 0.10 μM",91.0%
same,% parent remaining,"rat Cyp 2C6; recombinant rat Cyp 2C6, 0.21 μM",88.8%
